pIC50: −log10 of the molar value.
What was measured:
Test in all cases: cells
Type in all cases: functional, cell-based
Details in all cases: Homo sapiens
EW-11 = system: EW-11;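 note: growth inhibition of human EW-11 cells, measured with a cell viability assay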
Description: SANGER: Inhibition of human EW-11 cell growth in a cell viability assay.

LS-123 = system: LS-123
Description: SANGER: Inhibition of human LS-123 cell growth in a cell viability assay.

LB2241-RCC = system: LB2241-RCC;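 note: cell viability assay measuring how strongly the cultured human renal carcinoma line is prevented from growing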
Description: SANGER: Inhibition of human LB2241-RCC cell growth in a cell viability assay.

SJSA-1 = system: SJSA-1;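 note: growth inhibition of human SJSA-1 cells, read out through a cell viability measurement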
Description: SANGER: Inhibition of human SJSA-1 cell growth in a cell viability assay.

EM-2 = system: EM-2;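 note: growth inhibition of EM-2 cells, read out with a cell viability assay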
Description: SANGER: Inhibition of human EM-2 cell growth in a cell viability assay.

KNS-81-FD = system: KNS-81-FD;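 note: growth inhibition of KNS-81-FD cells, read out with a cell viability assay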
Description: SANGER: Inhibition of human KNS-81-FD cell growth in a cell viability assay.

NB10 = system: NB10;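 note: growth inhibition of NB10 cells, read out by a cell viability assay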
Description: SANGER: Inhibition of human NB10 cell growth in a cell viability assay.

NCI-H322M = system: NCI-H322M;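 note: cell viability assay measuring inhibition of growth of human NCI-H322M cells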
Description: SANGER: Inhibition of human NCI-H322M cell growth in a cell viability assay.

D-263MG = system: D-263MG
Description: SANGER: Inhibition of human D-263MG cell growth in a cell viability assay.

SF-268 = system: SF-268;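 note: growth inhibition of SF-268 cells determined with a cell viability assay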
Description: SANGER: Inhibition of human SF268 cell growth in a cell viability assay.

Becker = system: Becker;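 note: growth inhibition of Becker cells, read out with a cell viability assay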
Description: SANGER: Inhibition of human Becker cell growth in a cell viability assay.

L-363 = system: L-363
Description: SANGER: Inhibition of human L-363 cell growth in a cell viability assay.

GI-ME-N = system: GI-ME-N;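 note: growth inhibition of human GI-ME-N cells, read out with a cell viability assay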
Description: SANGER: Inhibition of human GI-ME-N cell growth in a cell viability assay.

SNU-5 = system: SNU-5;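 note: cell viability readout used to measure growth inhibition in human NCI-SNU-5 cells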
Description: SANGER: Inhibition of human NCI-SNU-5 cell growth in a cell viability assay.

MEG-01 = system: MEG-01;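 note: growth inhibition of MEG-01 cells, read out by a cell viability assay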
Description: SANGER: Inhibition of human MEG-01 cell growth in a cell viability assay.

NKM-1 = system: NKM-1;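 note: growth inhibition of NKM-1 cells, read out with a cell viability assay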
Description: SANGER: Inhibition of human NKM-1 cell growth in a cell viability assay.

TE-10 = system: TE-10;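 note: growth inhibition of TE-10 cells, measured by a cell viability assay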
Description: SANGER: Inhibition of human TE-10 cell growth in a cell viability assay.

BE-13 = system: BE-13;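 note: growth inhibition of human BE-13 cells, measured with a cell viability assay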
Description: SANGER: Inhibition of human BE-13 cell growth in a cell viability assay.

VA-ES-BJ = system: VA-ES-BJ;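 note: growth inhibition of the VA-ES-BJ cell line, read out by a cell viability assay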
Description: SANGER: Inhibition of human VA-ES-BJ cell growth in a cell viability assay.

NTERA-2-cl-D1 = system: NTERA-2-cl-D1;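 note: inhibition of cell growth, measured with a cell viability assay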
Description: SANGER: Inhibition of human NTERA-S-cl-D1 cell growth in a cell viability assay.

KE-37 = system: KE-37;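 note: growth inhibition of KE-37 cells, read out with a cell viability assay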
Description: SANGER: Inhibition of human KE-37 cell growth in a cell viability assay.

COLO-320-HSR = system: COLO-320-HSR;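 note: growth inhibition of COLO-320-HSR cells, determined with a cell viability assay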
Description: SANGER: Inhibition of human COLO-320-HSR cell growth in a cell viability assay.

NB5 = system: NB5;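 note: growth inhibition of NB5 cells, read out as cell viability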
Description: SANGER: Inhibition of human NB5 cell growth in a cell viability assay.

MMAC-SF = system: MMAC-SF;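 note: growth inhibition of human MMAC-SF cells, read out with a cell viability assay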
Description: SANGER: Inhibition of human MMAC-SF cell growth in a cell viability assay.

SK-MEL-2 = system: SK-MEL-2;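 note: growth inhibition of human SK-MEL-2 cells measured with a cell viability assay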
Description: SANGER: Inhibition of human SK-MEL-2 cell growth in a cell viability assay.

IST-MEL1 = system: IST-MEL1;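 note: growth inhibition of the cell line, read out with a cell viability assay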
Description: SANGER: Inhibition of human IST-MEL1 cell growth in a cell viability assay.

LB373-MEL-D = system: LB373-MEL-D;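 note: growth inhibition of the cell line, read out in a cell viability assay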
Description: SANGER: Inhibition of human LB373-MEL-D cell growth in a cell viability assay.

UACC-257 = system: UACC-257
Description: SANGER: Inhibition of human UACC-257 cell growth in a cell viability assay.

IST-MES1 = system: IST-MES1;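 note: growth inhibition of IST-MES1 cells, measured with a cell viability assay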
Description: SANGER: Inhibition of human IST-MES1 cell growth in a cell viability assay.

ES7 = system: ES7;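 note: growth inhibition of cultured human ES7 cells, read out as cell viability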
Description: SANGER: Inhibition of human ES7 cell growth in a cell viability assay.

K562 = system: K562
Description: SANGER: Inhibition of human K-562 cell growth in a cell viability assay.

RXF 393 = system: RXF 393;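 note: growth inhibition of human RXF 393 cells, read out with a cell viability assay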
Description: SANGER: Inhibition of human RXF393 cell growth in a cell viability assay.

KM-H2 = system: KM-H2;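 note: growth inhibition of KM-H2 cells, read out by a cell viability assay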
Description: SANGER: Inhibition of human KM-H2 cell growth in a cell viability assay.

EW-18 = system: EW-18;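 note: growth inhibition of EW-18 cells, read out by a cell viability assay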
Description: SANGER: Inhibition of human EW-18 cell growth in a cell viability assay.

HT = system: HT
Description: SANGER: Inhibition of human HT cell growth in a cell viability assay.

KNS-42 = system: KNS-42;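 note: growth inhibition of KNS-42 cells, read out with a cell viability assay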
Description: SANGER: Inhibition of human KNS-42 cell growth in a cell viability assay.

ML-2 = system: ML-2;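 note: growth inhibition of ML-2 cells, measured with a cell viability readout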
Description: SANGER: Inhibition of human ML-2 cell growth in a cell viability assay.

CP66-MEL = system: CP66-MEL;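 note: growth inhibition of CP66-MEL cells determined in a cell viability assay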
Description: SANGER: Inhibition of human CP66-MEL cell growth in a cell viability assay.

L-540 = system: L-540;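 note: growth inhibition of the human L-540 cell line, read out with a viability assay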
Description: SANGER: Inhibition of human L-540 cell growth in a cell viability assay.

ES4 = system: ES4;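 note: growth inhibition of human ES4 cells, read out by a cell viability assay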
Description: SANGER: Inhibition of human ES4 cell growth in a cell viability assay.

PSN1 = system: PSN1;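 note: suppression of growth of human PSN1 cells, read out by a cell viability assay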
Description: SANGER: Inhibition of human PSN1 cell growth in a cell viability assay.

AM-38 = system: AM-38;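 note: growth inhibition of AM-38 cells of human origin, read out by a cell viability assay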
Description: SANGER: Inhibition of human AM-38 cell growth in a cell viability assay.

SF-539 = system: SF-539;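 note: Read-out is a cell viability assay, with IC50 reflecting inhibition of cell growth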
Description: SANGER: Inhibition of human SF539 cell growth in a cell viability assay.

A101D = system: A101D;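 note: growth inhibition of the cell line, measured with a viability assay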
Description: SANGER: Inhibition of human A101D cell growth in a cell viability assay.

no-11 = system: no-11;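 note: growth inhibition of human NO-11 cells, read out with a cell viability assay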
Description: SANGER: Inhibition of human no-11 cell growth in a cell viability assay.

BT-474 = system: BT-474
Description: SANGER: Inhibition of human BT-474 cell growth in a cell viability assay.

COLO-800 = system: COLO-800;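 note: growth inhibition of COLO-800 cells, read out with a cell viability assay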
Description: SANGER: Inhibition of human COLO-800 cell growth in a cell viability assay.

GOTO = system: GOTO;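 note: growth inhibition of GOTO cells, read out by a cell viability assay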
Description: SANGER: Inhibition of human GOTO cell growth in a cell viability assay.

NCI-H446 = system: NCI-H446;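 note: growth inhibition of NCI-H446 cells determined by a cell viability assay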
Description: SANGER: Inhibition of human NCI-H446 cell growth in a cell viability assay.

HL-60 = system: HL-60;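 note: growth inhibition of human HL-60 cells, read out with a cell viability assay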
Description: SANGER: Inhibition of human HL-60 cell growth in a cell viability assay.

MN-60 = system: MN-60;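 note: growth inhibition of the MN-60 cell line, determined with a cell viability assay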
Description: SANGER: Inhibition of human MN-60 cell growth in a cell viability assay.

NCI-H1650 = system: NCI-H1650;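 note: growth inhibition of human NCI-H1650 cells measured by a cell viability assay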
Description: SANGER: Inhibition of human NCI-H1650 cell growth in a cell viability assay.

SH-4 = system: SH-4;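 note: growth inhibition of SH-4 cells, read out with a cell viability assay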
Description: SANGER: Inhibition of human SH-4 cell growth in a cell viability assay.

DU-4475 = system: DU-4475
Description: SANGER: Inhibition of human DU-4475 cell growth in a cell viability assay.

GT3TKB = system: GT3TKB;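 note: growth inhibition of the cell line, read out with a cell viability assay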
Description: SANGER: Inhibition of human GT3TKB cell growth in a cell viability assay.

ALL-PO = system: ALL-PO;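 note: growth inhibition of ALL-PO cells, read out by a cell viability assay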
Description: SANGER: Inhibition of human ALL-PO cell growth in a cell viability assay.

Work on `COc1cc(C)c(Sc2cnc(NC(=O)c3ccc(CNC(C)C(C)(C)C)cc3)s2)cc1C(=O)N1CCN(C(C)=O)CC1` (configuration not stated) yielded a pIC50 (EW-11) of less than 4.99, a pIC50 (LS-123) of less than 4.99 and a pIC50 (LB2241-RCC) of less than 4.99. The pIC50 (SJSA-1) was 5.12, the pIC50 (EM-2) was less than 4.99 and the pIC50 (KNS-81-FD) was less than 4.99. It also gave a pIC50 (NB10) of less than 4.99, a pIC50 (NCI-H322M) of less than 4.99 and a pIC50 (D-263MG) of less than 4.99. For the same molecule, the pIC50 (SF-268) was less than 4.99, the pIC50 (Becker) was less than 4.99 and the pIC50 (L-363) was 5.31. It also gave a pIC50 (GI-ME-N) of 5.37, a pIC50 (SNU-5) of less than 4.99 and a pIC50 (MEG-01) of less than 4.99. It also gave a pIC50 (NKM-1) of 5.00, a pIC50 (TE-10) of less than 4.99 and a pIC50 (BE-13) of less than 4.99. The pIC50 (VA-ES-BJ) was less than 4.99, the pIC50 (NTERA-2-cl-D1) was 5.06 and the pIC50 (KE-37) was less than 4.99. The pIC50 (COLO-320-HSR) was less than 4.99, the pIC50 (NB5) was less than 4.99 and the pIC50 (MMAC-SF) was less than 4.99. It also gave a pIC50 (SK-MEL-2) of less than 4.99, a pIC50 (IST-MEL1) of less than 4.99 and a pIC50 (LB373-MEL-D) of less than 4.99. The pIC50 (UACC-257) was less than 4.99, the pIC50 (IST-MES1) was less than 4.99 and the pIC50 (ES7) was less than 4.99. It also gave a pIC50 (K562) of less than 4.99, a pIC50 (RXF 393) of less than 4.99 and a pIC50 (KM-H2) of less than 4.99. It also gave a pIC50 (EW-18) of less than 4.99, a pIC50 (HT) of less than 4.99 and a pIC50 (KNS-42) of less than 4.99. It also gave a pIC50 (ML-2) of 5.42, a pIC50 (CP66-MEL) of less than 4.99 and a pIC50 (L-540) of less than 4.99. The pIC50 (ES4) was 5.18, the pIC50 (PSN1) was 5.60 and the pIC50 (AM-38) was less than 4.99. The pIC50 (SF-539) was less than 4.99, the pIC50 (A101D) was 5.32 and the pIC50 (no-11) was less than 4.99. For the same molecule, the pIC50 (BT-474) was less than 4.99, the pIC50 (COLO-800) was less than 4.99 and the pIC50 (GOTO) was less than 4.99. For the same molecule, the pIC50 (NCI-H446) was less than 4.99, the pIC50 (HL-60) was less than 4.99 and the pIC50 (MN-60) was less than 4.99. The pIC50 (NCI-H1650) was less than 4.99, the pIC50 (SH-4) was 5.60 and the pIC50 (DU-4475) was less than 4.99. The pIC50 (GT3TKB) was less than 4.99 and the pIC50 (ALL-PO) was less than 4.99.

Work on `Cc1nc(Nc2ncc(C(=O)Nc3c(C)cccc3Cl)s2)cc(N2CCN(CCO)CC2)n1` [DASATINIB] yielded a pIC50 (EW-11) of less than 5.89, a pIC50 (LS-123) of 6.85 and a pIC50 (LB2241-RCC) of less than 5.89. The pIC50 (SJSA-1) was less than 5.89, the pIC50 (EM-2) was greater than 8.30 and the pIC50 (KNS-81-FD) was less than 5.89. The pIC50 (NB10) was less than 5.89, the pIC50 (NCI-H322M) was less than 5.89 and the pIC50 (D-263MG) was 6.44. It also gave a pIC50 (SF-268) of 6.76, a pIC50 (Becker) of 7.52 and a pIC50 (L-363) of less than 5.89. The pIC50 (GI-ME-N) was 7.21, the pIC50 (SNU-5) was less than 5.89 and the pIC50 (MEG-01) was greater than 8.30. It also gave a pIC50 (NKM-1) of less than 5.89, a pIC50 (TE-10) of 7.20 and a pIC50 (BE-13) of less than 5.89. The pIC50 (VA-ES-BJ) was 7.41, the pIC50 (NTERA-2-cl-D1) was 6.91 and the pIC50 (KE-37) was less than 5.89. For the same molecule, the pIC50 (COLO-320-HSR) was less than 5.89, the pIC50 (NB5) was less than 5.89 and the pIC50 (MMAC-SF) was less than 5.89. The pIC50 (SK-MEL-2) was less than 5.89, the pIC50 (IST-MEL1) was 6.87 and the pIC50 (LB373-MEL-D) was 6.08. The pIC50 (UACC-257) was less than 5.89, the pIC50 (IST-MES1) was 7.07 and the pIC50 (ES7) was less than 5.89. For the same molecule, the pIC50 (K562) was greater than 8.30, the pIC50 (RXF 393) was 7.63 and the pIC50 (KM-H2) was less than 5.89. It also gave a pIC50 (EW-18) of less than 5.89, a pIC50 (HT) of less than 5.89 and a pIC50 (KNS-42) of 5.91. It also gave a pIC50 (ML-2) of less than 5.89, a pIC50 (CP66-MEL) of 6.71 and a pIC50 (L-540) of less than 5.89. It also gave a pIC50 (ES4) of 5.98, a pIC50 (PSN1) of 7.35 and a pIC50 (AM-38) of less than 5.89. The pIC50 (SF-539) was less than 5.89, the pIC50 (A101D) was 5.99 and the pIC50 (no-11) was 6.30. For the same molecule, the pIC50 (BT-474) was less than 5.89, the pIC50 (COLO-800) was less than 5.89 and the pIC50 (GOTO) was less than 5.89. It also gave a pIC50 (NCI-H446) of 6.20, a pIC50 (HL-60) of less than 5.89 and a pIC50 (MN-60) of less than 5.89. For the same molecule, the pIC50 (NCI-H1650) was less than 5.89, the pIC50 (SH-4) was 6.73 and the pIC50 (DU-4475) was less than 5.89. It also gave a pIC50 (GT3TKB) of less than 5.89 and a pIC50 (ALL-PO) of less than 5.89.
